As usually defined, the IC50 is the concentration that gives 50% inhibition.

SMILES strings stand for the structures.

For one molecule, IC50 results are on record in ChEMBL document CHEMBL5223129, “Antioxidant, Anti-inflammatory, and Immunomodulatory Roles of Nonvitamin Antioxidants in Anti-SARS-CoV-2 Therapy” (J Med Chem, 2022).

For this test, the system named is SARS-CoV-2. Kind of test: Antiviral activity against pseudovirus SARS-CoV-2 spike protein infected human HEK293T cells overexpressing ACE2 assessed as inhibition of viral infection incubated for 96 hrs by GFP fluorescence based method. The test is classed as functional, organism-based. The following applies: Severe acute respiratory syndrome coronavirus 2, HEK-293T.

For the molecule `CC1=C[C@H](O)CC(C)(C)[C@H]1/C=C/C(C)=C/C=C/C(C)=C/C=C/C=C(C)/C=C/C=C(\CO)C(=O)CC1=C(C)C[C@@H](O)CC1(C)C`, the half-maximal inhibitory concentration (IC50) amounted to 87.4 µM.
